Test results: ChEMBL document CHEMBL1806415, “Growth inhibition of Escherichia coli and methicillin-resistant Staphylococcus aureus by targeting cellular methionine aminopeptidase” (Eur J Med Chem, 2011)
≈ marks a conversion by molar mass, not a printed value. Calls of active or inactive are those of the source. The rule behind the calls is not given here.

Legend:
Escherichia coli [1] = test: Antibacterial activity against Escherichia coli AS19 assessed as growth inhibition after 10 hrs by spectrophotometry; type: functional, organism-based; conditions: AS19, 10 h
Staphylococcus aureus [2] = test: Antibacterial activity against […] Staphylococcus aureus ATCC 43300 assessed as growth inhibition after 10 hrs by spectrophotometry; type: functional, organism-based; conditions: ATCC 43300, 10 h
Staphylococcus aureus [3] = test: Antibacterial activity against methicillin-resistant Staphylococcus aureus ATCC BAA1680 assessed as growth inhibition after 10 hrs by spectrophotometry; type: functional, organism-based; conditions: ATCC BAA1680, 10 h
[4] = Inhibition of Escherichia coli recombinant MetAP expressed in Escherichia coli BL21(DE3) assessed as production of fluorescent aminomethylcoumarin using Met-AMC as substrate by fluorescence assay in presence of […]
Escherichia coli [5] = test: Inhibition of MetAP in Escherichia coli AS19 harboring pBACE plasmid assessed as cellular accumulation of unprocessed GST after 50 hrs by mass spectrometry

Row | Compound | MIC90 (Escherichia coli [1]) [µg/mL] | IC50 (Staphylococcus aureus [2]) [µM] | MIC90 (Staphylococcus aureus [2]) [µg/mL] | IC50 (Staphylococcus aureus [3]) [µM] | MIC90 (Staphylococcus aureus [3]) [µg/mL] | IC50 [4] [µM] | inhibition (Escherichia coli [5]) | IC50 (Escherichia coli [1]) [µM]
1 | CCCc1ccsc1-c1ccc(O)c(O)c1 | 4 (≈ 17.1 µM) | 13.9 | 16 (≈ 68.3 µM) | 33.4 | 11 (≈ 46.9 µM) | 49.5 |  | 
2 | Oc1ccc(-c2cc(Cl)sc2Cl)cc1O | 3 (≈ 11.5 µM) | 11.3 | 4 (≈ 15.3 µM) | 4.6 | 2 (≈ 7.66 µM) | 51.9 | Active | 
3 | Cc1sc(C)c(-c2ccc(O)c(O)c2)c1Br | 5 (≈ 16.7 µM) | 12.2 | 18 (≈ 60.2 µM) | 23.2 | 13 (≈ 43.5 µM) | 63.6 |  | 
4 | CCCCc1ccsc1-c1ccc(O)c(O)c1 | 5 (≈ 20.1 µM) | 8.2 | 5 (≈ 20.1 µM) | 12.4 | 4 (≈ 16.1 µM) | 37.3 |  | 
5 | Oc1ccc(-c2sc(Cl)c(Cl)c2Cl)cc1O |  | 2.8 | 1 (≈ 3.38 µM) | 1 | 0.7 (≈ 2.37 µM) | 22.1 |  | 2.3
6 | Oc1ccc(-c2sccc2Cl)cc1O | 5 (≈ 22.1 µM) | 25.8 | 12 (≈ 52.9 µM) | 63.8 | 25 (≈ 110 µM) | 15.4 | Active | 23.3
7 | Oc1ccc(-c2ccsc2)cc1O | 15 (≈ 78 µM) | 11.7 | 11 (≈ 57.2 µM) | 41.7 | 13 (≈ 67.6 µM) | 38.4 |  | 
